Test results reported in patent publication US6855693B2, “Peptides for activation and inhibition of δPKC” (The Board of Trustees of the Leland Stanford Junior …, priority 2001, dated 2005).
No end group written: not given here.

What was measured:
Sprague-Dawley rats = assay: Rat cerebral ischemia (stroke) model, middle cerebral artery occlusion, infarct area; format: in vivo; settings: Tat-conjugated δV1-1 into carotid artery prior to ischemia and at end of 2 hour occlusion, final blood concentration 1 μM; brains 24 hrs later
Procedure: In another study performed in support of the invention, the ability of δV1-1 peptide (SEQ ID NO:4) to inhibit damage to the brain as a result of stroke was examined. In this study, described in Example 6, a rat cerebral ischemia model was used. Ischemia was induced using an intraluminal suture to occlude the ostium of the middle cerebral artery. δV1-1 conjugated to Tat peptide (SEQ ID NO:9) or the Tat peptide alone were injected into the carotid artery before and after a two hour occlusion period. The brain from each animal was harvested 24 hours later, stained, and examined.
Adult male Sprague-Dawley rats weighing between 280-320 g were used. Animals were maintained under isofluorane anesthesia during all surgical procedures. Physiological parameters were monitored and maintained in the normal range. Rectal temperature was also measured. At the completion of the experiment, the animals were euthanized with a barbiturate overdose and prepared for histological analysis.
Ischemia was induced using an occluding intraluminal suture. […]
Animals were perfused with heparinized saline and brains removed and sectioned into 2 mm thick slices. […] Areas of infarction (white) were then measured using an image analysis system previously described (Yenari, M. A. et al., 1998; Maier, C. et al., 1998).

pigs = assay: Left ventricurogram in pigs, ejection fraction; format: in vivo, pig
Procedure: In another study, left ventricurogram was performed in pigs (n=5) at three time points: (1) before occlusion of left anterior descending artery by balloon catheter (pre ischemia); (2) immediately after reperfusion with 2.5 μM/10 mL of δV1-1 (post ischemia); and (3) before sacrifice five days later (5 days post ischemia), using 6 Fr. of pig-tail catheter. LVG was recorded by 2 views, right anterior oblique and left anterior oblique. Ejection fraction (EF), the percent of blood ejected in a beat, during maximum contraction, of the total maximum present in the left ventricle, was analyzed by the software, Plus Plus (Sanders Data Systems), and the averages of two views were evaluated. Ejection fraction is a measure of how well the heart is functioning, with a higher ejection fraction indicative of a better functioning heart.

adult female pigs [1] = assay: Pathology of blood and tissue samples of the treated pigs; design: species or system pig; settings: pigs treated in vivo with δV1-1
From the text: (§1) Blood samples and tissue samples of lung, liver, brain, gut, kidney, etc. were collected from the animals and analyzed at a pathology lab. […] Kidney, liver, brain, and lung functions were normal and all blood analyses were also normal.

whole rat hearts = assay: Ex vivo whole hearts, peptide during reperfusion after 20 min global ischemia, functional recovery
Procedure: Another study was performed to determine if the peptides could be delivered to an intact organ to provide protection after an ischemic insult. In this study, as described in Example 4, the rat heart model described above was used and the hemodynamic parameters were measured during the 20 minutes of global ischemia and the […]. During the reperfusion only, δV1-1 was delivered at a concentration of 500 nM.
In a similar study, five pairs of rats were treated as described in Example 4, where the ex vivo hearts were subjected to 20 minutes of ischemia and 30 minutes of reperfusion. During the first 20 minutes of reperfusion, 500 nM of δV1-1 or vehicle control was administered.
Rat hearts were isolated as described in Example 3. The left ventricular pressure and its real-time derivative (dP/dt) were monitored via a latex balloon placed in the ventricular cavity and at a constant heart rate by pacing (3.3 Hz) and at a constant coronary flow (10 ml/min.). The hearts were subjected to 20 minutes of ischemia and 30 minutes of re-perfusion. During the first 20 minutes of reperfusion, 500 nM of δV1-1 or vehicle control was delivered.

adult female pigs [2] = assay: In vivo pig cardiac ischemia (30 min LAD balloon occlusion), infarct of area at risk after five days; settings: approximately 20 μg Tat-conjugated peptide during last 10 minutes of 30 minute occlusion; five days later
Procedure: In another study in support of the invention, the ability of δV1-1 peptide to protect tissue from damage due to an ischemic or hypoxic event was evaluated by administering the peptide in vivo to adult female pigs. As detailed in Example 5, δV1-1 peptide was administered to the pigs during the last 10 minutes of a 30 minute ischemic insult. Five days later, the hearts were analyzed for tissue damage. Adult female pigs, 35-40 kg in weight, were anesthetized and a catheter was introduced through the carotid artery into the heart. Using conventional intervention cardiology techniques, a wire was placed through a catheter and into the left anterior descending artery. A balloon was run over this wire to a site of occlusion where it was then inflated to block blood flow for 30 minutes. […] From this the percent infarct per area at risk for each slice and for the entire heart was determined.

mouse model = assay: Safety of two injections in the mouse model; format: in vivo; settings: 1 μM final concentration
From the text: as §1

[3] = 500 nM during reperfusion after 20 minutes global ischemia

reduction in creatine phosphokinase release compared with vehicle control (whole rat hearts; 500 nM during reperfusion after 20 minutes global ischemia, not shown): ~50%
Sequence: SFNSYELGSL (also: conjugated to Antennapedia or Tat carrier; listed as Rattus norvegicus) [δV1-1, tested conjugated to Antennapedia or Tat carrier]
brain infarct area (Sprague-Dawley rats): significant reduction
decrease in ejection fraction compared with scrambled peptide control (pigs; reperfusion with 2.5 μM/10 mL of δV1-1, post ischemia): less pronounced decrease
ejection fraction at five days post ischemia (pigs; reperfusion with 2.5 μM/10 mL of δV1-1, 5 days post ischemia): on par with that measured prior to ischemia and significantly higher than the untreated animals
blood samples and tissue samples of lung, liver, brain, gut, kidney, pathology (adult female pigs [1]): All samples were normal and no inflammation or tissue abnormalities were observed
end diastolic pressure (EDP) (whole rat hearts; 500 nM during first 20 minutes of reperfusion, 5-30 minutes after reperfusion): approximately 60 mmHg
coronary perfusion pressure (PP) (whole rat hearts; [3]): reduced
elevated LVP end diastolic pressure (whole rat hearts; [3]): reduced
perfusion pressure (PP) relative to hearts left untreated (whole rat hearts; after ischemia and after treatment with 500 nM δV1-1): about 75%
infarct area within the area at risk (heart slices) (adult female pigs [2]): significantly reduced infarct area
percent of infarct of the area at risk compared with untreated animals (adult female pigs [2]): nearly two-fold lower
adverse effect of two injections (mouse model; mouse model): no adverse effect
blood analyses (mouse model; two injections): normal
kidney, liver, brain, and lung functions (mouse model; two injections): normal
